Laboratory results: patent US6737383B1, “Herbicidal oxadiazolidines” (priority 1999, dated 2004)

Tests used:
surinam grass = assay: Test B pre/postemergence surinam grass; assay type: in vivo, Brachiaria decumbens
Summary of the method: (§1)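 Test chemicals in a non-phytotoxic solvent mixture with surfactant were sprayed preemergence onto planted seeds and postemergence onto plants 2 to 18 cm tall (1- to 4-leaf stage). After twelve to sixteen days in a greenhouse, injury was visually rated against untreated controls from 0 (no effect) to 10 (complete control).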

blackgrass = assay: Test B pre/postemergence blackgrass; assay type: in vivo, Alopecurus myosuroides
Summary of the method: as §1

rape = assay: Test B pre/postemergence rape; assay type: in vivo, Brassica napus
Summary of the method: as §1

purple nutsedge = assay: Test B pre/postemergence purple nutsedge; assay type: in vivo, Cyperus rotundus
Summary of the method: as §1

soybean = assay: Test B pre/postemergence soybean; assay type: in vivo, Glycine max
Summary of the method: as §1

giant foxtail = assay: Test B pre/postemergence giant foxtail; assay type: in vivo, Setaria faberii
Summary of the method: as §1

wild oat = assay: Test B pre/postemergence wild oat; assay type: in vivo, Avena fatua
Summary of the method: as §1

pigweed = assay: Test B pre/postemergence pigweed; assay type: in vivo, Amaranthus retroflexus
Summary of the method: as §1

velvetleaf = assay: Test B pre/postemergence velvetleaf; assay type: in vivo, Abutilon theophrasti
Summary of the method: as §1

cocklebur = assay: Test B pre/postemergence cocklebur; assay type: in vivo, Xanthium strumarium
Summary of the method: as §1

sugar beet = assay: Test B pre/postemergence sugar beet; assay type: in vivo, Beta vulgaris
Summary of the method: as §1

wheat = assay: Test B pre/postemergence wheat; assay type: in vivo, Triticum aestivum
Summary of the method: as §1

crabgrass = assay: Test B pre/postemergence crabgrass; assay type: in vivo, Digitaria sanguinalis
Summary of the method: as §1

corn = assay: Test B pre/postemergence corn; assay type: in vivo, Zea mays
Summary of the method: as §1

bedstraw = assay: Test B pre/postemergence bedstraw; assay type: in vivo, Galium aparine
Summary of the method: as §1

morningglory = assay: Test B pre/postemergence morningglory; assay type: in vivo, Ipomoea hederacea
Summary of the method: as §1

[1] = Postemergence, Rate 62 g/ha, scale 0 to 10, 0 is no effect, 10 is complete control
[2] = Postemergence, Rate 125 g/ha, scale of 0 to 10 where 0 is no effect and 10 is complete control
[3] = Preemergence, Rate 125 g/ha, scale of 0 to 10 where 0 is no effect and 10 is complete control
[4] = Rate 250 g/ha, Postemergence, scale 0 to 10, 0 is no effect, 10 is complete control
[5] = Rate 500 g/ha, Postemergence, scale 0 to 10, 0 is no effect, 10 is complete control
[6] = Rate 500 g/ha, Preemergence, scale 0 to 10 (0 no effect, 10 complete control)
[7] = Rate 62 g/ha, Preemergence, scale 0 to 10
[8] = Preemergence, Rate 250 g/ha, scale 0 (no effect) to 10 (complete control)

CC(C)N(C(=O)n1oc(=O)n(C[C@H](C)Cl)c1=O)c1ccccc1 [Compound 747]
Plant response rating, B. signalgrass (surinam grass; [1]): 1
B. signalgrass plant response rating (surinam grass; [2]): 3
B. signalgrass plant response rating (surinam grass; Preemergence, Rate 62 g/ha, scale of 0 to 10 where 0 is no effect and 10 is complete control): 7
Plant response rating, B. signalgrass (surinam grass; [3]): 8
B. signalgrass plant response rating (surinam grass; [4]): 4
B. signalgrass plant response rating (surinam grass; [5]): 6
B. signalgrass plant response rating (surinam grass; [6]): 9
Plant response rating, Blackgrass (blackgrass; [1]): 5
Blackgrass plant response rating (blackgrass; [2]): 7
Plant response rating, Blackgrass (blackgrass; [3]): 8
Blackgrass plant response rating (blackgrass; [7]): 8
Blackgrass plant response rating (blackgrass; [4]): 8
Blackgrass plant response rating (blackgrass; [5]): 8
Blackgrass plant response rating (blackgrass; [6]): 8
Plant response rating, Rape (rape; [1]): 4
Rape plant response rating (rape; [2]): 4
Plant response rating, Rape (rape; [3]): 9
Rape plant response rating (rape; [8]): 10
Rape plant response rating (rape; [7]): 7
Rape plant response rating (rape; [4]): 4
Rape plant response rating (rape; [5]): 9
Plant response rating, Nutsedge (purple nutsedge; [1]): 0
Nutsedge plant response rating (purple nutsedge; [2]): 0
Plant response rating, Nutsedge (purple nutsedge; [3]): 2
Nutsedge plant response rating (purple nutsedge; [8]): 4
Nutsedge plant response rating (purple nutsedge; [7]): 0
Nutsedge plant response rating (purple nutsedge; [4]): 0
Nutsedge plant response rating (purple nutsedge; [5]): 0
Nutsedge plant response rating (purple nutsedge; [6]): 2
Plant response rating, Soybean (soybean; [1]): 4
Soybean plant response rating (soybean; [2]): 4
Plant response rating, Soybean (soybean; [3]): 0
Soybean plant response rating (soybean; [8]): 0
Soybean plant response rating (soybean; [7]): 0
Soybean plant response rating (soybean; [4]): 7
Soybean plant response rating (soybean; [5]): 8
Soybean plant response rating (soybean; [6]): 9
Plant response rating, Giant foxtail (giant foxtail; [1]): 8
Giant foxtail plant response rating (giant foxtail; [2]): 9
Plant response rating, Giant foxtail (giant foxtail; [3]): 10
Giant foxtail plant response rating (giant foxtail; [8]): 10
Giant foxtail plant response rating (giant foxtail; [7]): 10
Giant foxtail plant response rating (giant foxtail; [4]): 9
Giant foxtail plant response rating (giant foxtail; [5]): 9
Giant foxtail plant response rating (giant foxtail; [6]): 10
Plant response rating, Wild oats (wild oat; [1]): 0
Wild oats plant response rating (wild oat; [2]): 0
Wild oats plant response rating (wild oat; [8]): 3
Wild oats plant response rating (wild oat; [7]): 3
Wild oats plant response rating (wild oat; [4]): 2
Wild oats plant response rating (wild oat; [5]): 2
Plant response rating, Redroot pigweed (pigweed; [1]): 4
Redroot pigweed plant response rating (pigweed; [2]): 4
Redroot pigweed plant response rating (pigweed; [8]): 8
Redroot pigweed plant response rating (pigweed; [7]): 8
Redroot pigweed plant response rating (pigweed; [4]): 7
Redroot pigweed plant response rating (pigweed; [5]): 8
Plant response rating, Velvetleaf (velvetleaf; [1]): 0
Velvetleaf plant response rating (velvetleaf; [2]): 4
Plant response rating, Velvetleaf (velvetleaf; [3]): 6
Velvetleaf plant response rating (velvetleaf; [8]): 7
Velvetleaf plant response rating (velvetleaf; [7]): 4
Velvetleaf plant response rating (velvetleaf; [4]): 4
Velvetleaf plant response rating (velvetleaf; [5]): 7
Velvetleaf plant response rating (velvetleaf; [6]): 7
Plant response rating, Cocklebur (cocklebur; [1]): 0
Cocklebur plant response rating (cocklebur; [2]): 0
Cocklebur plant response rating (cocklebur; [8]): 0
Cocklebur plant response rating (cocklebur; [7]): 0
Cocklebur plant response rating (cocklebur; [4]): 2
Cocklebur plant response rating (cocklebur; [5]): 4
Cocklebur plant response rating (cocklebur; [6]): 0
Plant response rating, Sugarbeets (sugar beet; [1]): 0
Sugarbeets plant response rating (sugar beet; [2]): 0
Plant response rating, Sugarbeets (sugar beet; [3]): 6
Sugarbeets plant response rating (sugar beet; [8]): 7
Sugarbeets plant response rating (sugar beet; [7]): 4
Sugarbeets plant response rating (sugar beet; [4]): 0
Sugarbeets plant response rating (sugar beet; [5]): 3
Plant response rating, Wheat (wheat; [1]): 0
Wheat plant response rating (wheat; [2]): 0
Wheat plant response rating (wheat; [8]): 0
Wheat plant response rating (wheat; [7]): 0
Wheat plant response rating (wheat; [4]): 4
Wheat plant response rating (wheat; [5]): 4
Plant response rating, Crabgrass (crabgrass; [1]): 3
Crabgrass plant response rating (crabgrass; [2]): 9
Plant response rating, Crabgrass (crabgrass; [3]): 10
Crabgrass plant response rating (crabgrass; [8]): 10
Crabgrass plant response rating (crabgrass; [7]): 10
Crabgrass plant response rating (crabgrass; [4]): 9
Crabgrass plant response rating (crabgrass; [5]): 9
Crabgrass plant response rating (crabgrass; [6]): 10
Plant response rating, Corn (corn; [1]): 0
Corn plant response rating (corn; [2]): 0
Plant response rating, Corn (corn; [3]): 2
Corn plant response rating (corn; [8]): 6
Corn plant response rating (corn; [7]): 2
Corn plant response rating (corn; [4]): 4
Corn plant response rating (corn; [5]): 5
Corn plant response rating (corn; [6]): 9
Plant response rating, Bedstraw (bedstraw; [1]): 8
Bedstraw plant response rating (bedstraw; [2]): 8
Plant response rating, Bedstraw (bedstraw; [3]): 0
Bedstraw plant response rating (bedstraw; [7]): 0
Bedstraw plant response rating (bedstraw; [6]): 0
Plant response rating, Morningglory (morningglory; [1]): 2
Morningglory plant response rating (morningglory; [2]): 9
Plant response rating, Morningglory (morningglory; [3]): 0
Morningglory plant response rating (morningglory; [8]): 0
Morningglory plant response rating (morningglory; [7]): 0
Morningglory plant response rating (morningglory; [4]): 10
Morningglory plant response rating (morningglory; [5]): 10
Morningglory plant response rating (morningglory; [6]): 7
